Results: patent US20250262206A1, “USE OF TACHYKININ RECEPTOR 3 INHIBITÓR” (WUHAN UNIVERSITY, priority 2021, published 2025)
Where two headings read alike, the source gives them in different places.

Key:
[1] = test system: hot flashes in postmenopausal women; details: Phase 2 clinical trials; cited from earlier work
C57BL/6J-APCMin/+ mice = assay: Kidney damage caused by intestinal adenoma in C57BL/6J-APCMin/+ mice; type: in vivo, mouse; details: 10 mg/kg/day intraperitoneal, 9 days
Description: C57BL/6J-APCMin/+ mice are a mature mammalian intestinal adenoma model and are commonly used to study host consumption caused by tumors.
Methods: Male mice of C57BL/6J in the control group and C57BL/6J-APCMin/+ in the experimental group (7 mice in each group) were fed to 16 weeks of age under normal feeding conditions. When the mice in the experimental group began to lose weight, they were injected intraperitoneally with Fezolinetant (0, 10 mg/kg/day) for 9 consecutive days, and the body weight and urine output were measured, and the kidneys were stained to observe the tubular morphology.

[2] = test system: Yki activated Drosophila (intestinal tumors); assay: Drosophila ascites caused by yki intestinal tumors; type: in vivo; details: 100 μM in food, yki intestinal tumor Drosophila, 6 days / 8 days
From the text: Overexpression of the activated proto-oncogene yki in Drosophila intestinal stem cells can lead to malignant proliferation of intestinal stem cells, and then the formation of tumors. The formation of tumors seriously damages the secretory function of Drosophila Malpighian tubules, leading to the inability of circulating water in the Drosophila hemolymph to be drained out of the body, and the emergence of a severe ascites phenotype. Methods: Activated yki tumors (genotypes esg-Gal4, UAS-GFP, tub-Gal80TS/+; UAS-yki3SA/+) were induced in the Drosophila intestine by initiating gene expression at 29° C. Drosophilas were fed with food supplemented with DMSO, Fezolinetant (10 μM, 100 μM), and Pavinetant (10 μM, 100 μM), […], and compared with the control group (esg-Gal4, UAS-GFP, tub-Gal80TS/+), to observe phenotypes, detect intestinal tumor growth and systemic glycolipid changes, and count ascites ratios.

cytochrome P450-3A4 = cytochrome P450-3A4 (Homo sapiens, UniProt P08684); details: cited from earlier work
cytochrome P450-3A4, sequence (P08684 whole entry): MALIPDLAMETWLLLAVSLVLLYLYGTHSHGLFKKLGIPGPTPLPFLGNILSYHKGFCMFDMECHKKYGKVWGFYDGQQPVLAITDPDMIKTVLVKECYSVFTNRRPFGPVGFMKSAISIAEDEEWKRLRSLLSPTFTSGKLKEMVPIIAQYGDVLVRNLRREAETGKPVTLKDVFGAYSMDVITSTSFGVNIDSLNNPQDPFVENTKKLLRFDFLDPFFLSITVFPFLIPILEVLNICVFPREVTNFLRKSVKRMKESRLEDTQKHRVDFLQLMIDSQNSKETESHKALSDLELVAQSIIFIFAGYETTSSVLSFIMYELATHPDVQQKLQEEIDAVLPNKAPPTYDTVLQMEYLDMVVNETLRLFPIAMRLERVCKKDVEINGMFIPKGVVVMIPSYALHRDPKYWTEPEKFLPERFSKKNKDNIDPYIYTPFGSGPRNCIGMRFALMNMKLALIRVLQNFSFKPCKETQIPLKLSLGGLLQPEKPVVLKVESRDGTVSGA

[3] = test system: MFC tumor mice (C57BL/6J); assay: Ascites and kidney damage caused by MFC forestomach cancer cells in mice; type: in vivo, mouse; details: 50 mg/kg/day intraperitoneal, 5 days
Description: MFC tumor (Mouse forestomach carcinoma), a common tumor that may cause ascites, colonizes the peritoneal cavity of mice. With their growth, the tumors may cause severe ascites accumulation and renal tubular damage in mice. Methods: C57BL/6J male mice, 4-6 weeks old. C57BL/6J mice in experimental group (6 mice in each group) were intraperitoneally injected with 1.5×10^7 MFC tumor cells, and 24 hours later, intraperitoneally injected with the inhibitor Pavinetant (0, 10, 50 mg/kg/day), and after 5 days of continuous administration, they were compared with the control group C57BL/6 (6 mice in each group). The body weight, ascites, and urine output were detected, and the kidneys were stained to observe the tubular morphology.

[4] = test system: polycystic ovary syndrome; details: Phase 2 clinical trials; cited from earlier work

| Compound | effect on hot flashes [1] | renal tubular damage (HE staining, tubular dilatation) (C57BL/6J-APCMin/+ mice) | urine output (C57BL/6J-APCMin/+ mice) | ascites in Drosophila [2] | blood glucose in Drosophila [2] | IC50 (cytochrome P450-3A4; midazolam, read-out: in vitro inhibitory IC50, cytochrome P450-3A4 enzyme activity, midazolam testing) [µM] | IC50 (cytochrome P450-3A4; testosterone, read-out: in vitro inhibitory IC50, cytochrome P450-3A4 enzyme activity, testosterone testing) [µM] | generation of ascites [3] | renal tubular lesions (renal tubular dilation) [3] | effect on polycystic ovary syndrome [4] |
| --- | --- | --- | --- | --- | --- | --- | --- | --- | --- | --- |
| Cc1nsc(-c2nnc3n2CCN(C(=O)c2ccc(F)cc2)[C@@H]3C)n1 [Fezolinetant] | significant improvement effect | significantly restored | significantly restored | significantly reduce | normalize |  |  |  |  |  |
| CC[C@H](NC(=O)c1c(NS(C)(=O)=O)c(-c2ccccc2)nc2ccccc12)c1ccccc1 [Pavinetant] | significantly improves |  |  | significantly reduce | normalize | 7.1 | 19.8 | significantly inhibit | alleviate | significantly improves |
